2 compounds from patent publication US20260137661A1, “PPAR-ALPHA/GAMMA AGONIST FOR USE IN THE TREATMENT OF LIVER FAILURE” (Genfit, priority 2022, published 2026) can be followed below.

The subject of one assay is HepG2 cell line. The assay can be described thus: Staurosporine-induced apoptosis in HepG2 cells: caspase 3/7 activity. It is filed as cell-based. Conditions: Homo sapiens, 16 h pre-treatment, then 10 μM staurosporin for 4 h, p<0.001. How it is done:
In order to evaluate the effect of the compounds to protect hepatocytes from cell death, apoptosis was induced by staurosporine in the human hepatoblastoma-derived HepG2 cell line (ECACC, #85011430, Sigma-Aldrich). HepG2 was cultured in high-glucose DMEM medium (#41965, Gibco, France) supplemented with 10% of fetal bovine serum (FBS, #10270, Gibco), 1% penicillin/streptomycin (#15140, Gibco), 1% sodium pyruvate (#11360, Gibco) and 1% MEM non-essential amino acids (#11140, Gibco) in a 5% CO2 incubator at 37° C.
To evaluate caspase 3/7 activity, which is a surrogate marker of apoptosis, 1.5×10^4 cells were plated in a 384-well plate (#781080, Greiner, France). After cell adherence (8 hours), cells were serum starved for 16h in the presence of compounds (dose ranging from 0.3 to 10 µM) or vehicle. Thereafter, cells were treated with 10 μM staurosporin (#569397, Sigma-Aldrich, Germany) supplemented with compound for additional 4 hours before cell lysis and caspase activity measurement.
Caspase 3/7 activity was measured using Caspase Glow™ 3/7 assay (#G8093, Promega, USA). Luminescence was measured using a Spark microplate reader (#30086376, Tecan, USA). The amount of luminescence (RLU) directly correlates with caspase 3/7 activity.

The subject of another assay is C57BL/6J male mice. The assay can be described thus: LPS/GalN mouse model of acute liver failure: serum hepatic markers and cytokines. The class given is in vivo. Conditions: 1 mg/kg/day oral gavage for 3 days before LPS/GalN injection, serum 6 h after LPS/GalN, vs vehicle. An excerpt: Low doses of LPS in combination with the hepatotoxic agent D-Galactososamine (GalN) promote specific liver injury in mice and induce the inflammatory cytokines production, thus recapitulating the clinical picture of acute liver injury in human (Pourcet et al., Gastroenterology, 2018, 154 (5), p 1449-1464.e20). Hepatic injury induced by LPS/GalN is therefore a widely used mouse model to evaluate the effect of pharmacological agents on acute liver failure.
To evaluate the efficacy of the compounds on liver injury and function and the inflammatory response occurring upon acute liver failure, C57BL/6J male mice (8 weeks old, Janvier Labs) received an intraperitoneal injection of 0.025 mg/kg LPS (Escherichia coli 0111: B4, #L2630, Sigma-Aldrich) supplemented with 700 mg/kg D-Galactosamine (GalN, G0500, Sigma-Aldrich).
Cpd.1 (1 mg/kg/day) or vehicle (carboxymethylcellulose 1%, 0.1% Tween 80) was administered by oral gavage during the three days before LPS/GalN injection (n=10-12 per group). Mice were sacrificed 6h after LPS/GalN injection. Blood samples were obtained from retro-orbital sinus puncture on animals slightly asleep with isoflurane (Isoflurin 1000 mg/g, GTIN 03760087152678, Axience) just before sacrifice. A group of mice (n=4) received an intraperitoneal injection to be used as healthy controls.
Serum aspartate aminotransferase (ASAT) was measured using Randox kit for Daytona Plus automate (AS 8306) according to the manufacturer recommendation. ASAT enzymatically transforms alpha-oxoglutarate and L-aspartate into L-glutamate and oxaloacetate. In the presence of NADH, the generated oxaloacetate is converted by malate dehydrogenase to form L-malate and NAD+. The kinetics of the reaction is studied and allows the concentration of ASAT to be calculated.
Serum alanine aminotransferase (ALAT) was measured using Randox kit for Daytona Plus automate (AL 8304) according to the manufacturer recommendation. ALAT enzymatically transforms alpha-oxoglutarate and L-alanine into L-glutamate and pyruvate. In the presence of NADH, the generated pyruvate is converted by lactate dehydrogenase to form L-lactate and NAD+. The kinetics of the reaction is studied and allows the concentration of ALAT to be calculated.
Serum total bilirubin was measured using Randox kit for Daytona Plus automate (BR 8377) according to the manufacturer recommendation. The bilirubin is oxidized by vanadate at about pH 2.9 to produce biliverdin. In the presence of detergent and vanadate, both conjugate and unconjugated bilirubin are oxidized. This oxidation reaction causes a decrease in the optical density of the yellow color, which is specific to bilirubin. The decrease in optical density at 450/546 nm is proportional to the total bilirubin concentration in the sample.
Serum total bile acids were measured using Randox kit for Daytona Plus automate (BI 3863) according to the manufacturer recommendation. In the presence of Thio-NAD, the enzyme 3-α-hydroxysteroid dehydrogenase (3-α-HSD) converts bile acids to 3-keto steroids and Thio-NADH. In the presence of excess NADH, the enzyme cycling occurs efficiently and the rate of formation of Thio-NADH is determined by measuring specific change of absorbance at 405 nm.
The concentration of serum interleukin-6 (IL6) was determined using a multiplex sandwich ELISA system (Mouse Magnetic Luminex #LSXAMSM-06, Biotechne) according to the manufacturer instructions. […] After washing, IL6 was detected through the addition of biotinylated antibodies. […]

With `COc1ccc(OC(=O)N(CC(=O)O)Cc2ccc(OCCc3nc(-c4ccccc4)oc3C)cc2)cc1` [Cpd.2, N-[(4-methoxyphenoxy)carbonyl]-N-[[4-[2-(5-methyl-2-phenyl-4-oxazolyl)ethoxy]phenyl]methyl]glycine], the inhibition at 3 µM with HepG2 cell line (3 μM compound) is 24%.
As to `CCO[C@@H](Cc1ccc(OCCc2ccc(OS(C)(=O)=O)cc2)cc1)C(=O)O` [Cpd. 1, (S)-2-ethoxy-3-(4-(4-((methylsulfonyl)oxy)phenethoxy)phenyl) propanoic acid], the “reduction of total bilirubin” value in the assay with C57BL/6J male mice (p=0.003) was found to be 73%. In addition, the “reduction of total bile acids” value with C57BL/6J male mice (p=0.004) is given as 79%. In addition, in the assay with C57BL/6J male mice (p=0.01), the “change of pro-inflammatory cytokine IL6 (serum)” value is on record as −78% and the “decrease of serum ASAT” value came to 66%. Moreover, the “decrease of serum ALAT” value with C57BL/6J male mice (p=0.03) is recorded as 57%. Moreover, the inhibition at 10 µM in the assay on HepG2 cell line (10 μM compound) is 12%.
